# Laboratory results reported in PMC6435570, “Zafirlukast Is a Dual Modulator of Human Soluble Epoxide Hydrolase and Peroxisome Proliferator-Activated Receptor γ” (Frontiers in Pharmacology, 2019).
# What was measured:
# [1] = biological target: T1, human PPARα ligand binding domain (Homo sapiens, UniProt Q07869); experiment: PPAR reporter gene assay (Gal4 hybrid, PPARα); type: cell-based; conditions: HEK-293T, reference GW7647 1 μM, tested up to 10 μM
# T1 construct: expressed in transfected cells; host or cells: HEK-293T
# T1 sequence (Q07869 239-466 limits assumed): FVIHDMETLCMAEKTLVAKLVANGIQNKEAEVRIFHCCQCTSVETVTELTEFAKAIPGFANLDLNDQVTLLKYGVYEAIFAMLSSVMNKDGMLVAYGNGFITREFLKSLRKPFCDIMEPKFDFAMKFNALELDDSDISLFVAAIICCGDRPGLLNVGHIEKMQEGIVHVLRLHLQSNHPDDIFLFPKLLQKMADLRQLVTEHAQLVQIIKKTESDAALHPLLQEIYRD
# Description: HEK-293T cells were seeded in 96-well plates (2.5 × 10^4 cells/well) and were allowed to adhere overnight. Before transfection, medium was changed to Opti-MEM without supplements. Transient plasmid transfection was carried out using Lipofectamine LTX reagent (Invitrogen, Carlsbad, CA, United States) according to the manufacturer’s protocol with pFR-Luc (Stratagene, La Jolla, CA, United States), pRL-SV40 (Promega, Fitchburg, MA, United States) and pFA-CMV-PPAR-LBD ([Rau et al., 2006]). 5 h after transfection, medium was changed to Opti-MEM supplemented with penicillin (100 U/mL) and streptomycin (100 μg/mL), now additionally containing 0.1% DMSO and the respective test compound or 0.1% DMSO alone as untreated control. Each concentration was tested in triplicates and each experiment was repeated independently at least four times. Following overnight (12–16 h) incubation with the test compounds, cells were assayed for luciferase activity using the Dual-Glo^TM Luciferase Assay System (Promega, Fitchburg, MA, United States) according to the manufacturer’s protocol. Luminescence was measured with an Infinite M200 luminometer (Tecan Group Ltd., Männedorf, Switzerland). Normalization of transfection efficiency and cell growth was done by division of firefly luciferase data by renilla luciferase data and multiplying the value by 1000 resulting in relative light units (RLU). Fold activation was obtained by dividing the mean RLU of a test compound at a respective concentration by the mean RLU of untreated control. Relative activation was obtained by dividing the fold activation of a test compound at a respective concentration by the fold activation of the respective PPARα, γ or δ full agonist GW-7647, pioglitazone or L165,041 at 1 μM. EC50 and standard deviation were calculated with the mean relative activation values of at least four independent experiments by SigmaPlot 10.0 (Systat Software GmbH, Erkrath, Germany) using a four parameter logistic regression. […]
# [2] = test system: PPARγ, FABP-4 and CD36 protein in 3T3-L1 adipocytes; experiment: Protein expression in differentiated 3T3-L1 adipocytes (Western Blot); type: cell-based, murine; conditions: rosiglitazone 2 μM; for PPARγ isoforms γ1 and γ2 protein expression: 3T3-L1 differentiated with cocktail plus compound; for Protein expression of PPARγ target genes FABP-4 and CD36: after 14 days
# Description: 3T3-L1 cells were differentiated into adipocytes for 14 days according to the protocol of [Zebisch et al. (2012)]. For this, cells were seeded in 6-well plates ([…]) and differentiation was induced after 48 h by addition of a differentiation cocktail containing 1 μg/mL insulin, 0.25 μM dexamethasone and 0.5 mM isobutylmethylxanthine (IBMX) in DMEM supplemented with 10% FCS and 1% PS. […] After 2 days, medium was replaced by DMEM supplemented with 10% FCS, 1% PS and 1 μg/mL insulin for 2 more days. Afterwards, cells were kept for lipid droplet accumulation in DMEM containing 10% FCS and 1% PS until day 15. Media were replaced every other day.
# Total 3T3-L1 or HEP-G2 cell lysates were prepared in lysis buffer (20 mM Tris-HCl, pH 7.4, 150 mM NaCl, 2 mM EDTA, 1% Triton X-100, 0.5% NP-40) supplemented with protease and phosphatase inhibitors (PhosSTOP^TM + cOmplete^TM Mini, Roche Diagnostics GmbH, Mannheim, Germany). Protein concentrations were quantified using the Pierce^TM BCA Protein Assay Kit (Thermo Scientific, Waltham, MA, United States). Total protein (30 μg/lane) was separated by SDS-polyacrylamide gel electrophoresis and transferred to nitrocellulose membranes (GE Healthcare Life Sciences, Little Chalfont, United Kingdom). Membranes were blocked with Odyssey blocking reagent (LI-COR Biosciences, Bad Homburg, Germany) for 1 h at room temperature. Ensuing, membranes were incubated with antibodies against CD36 (EPR6573, Abcam, Cambridge, United Kingdom), PPARγ (E-8, Santa Cruz Biotechnology, Heidelberg, Germany), FABP-4 (C-15, Santa Cruz Biotechnology, Heidelberg, Germany) or PPARγ Ser273 (Bioss Antibodies Inc., Woburn, MA, United States) overnight at 4°C. Afterwards, membranes were washed and incubated with fluorescence conjugated secondary antibodies (IRDye, LI-COR Biosciences, Bad Homburg, Germany). Protein antibody complexes were visualized on the Odyssey Infrared Imaging System (LI-COR Biosciences, Bad Homburg, Germany). β-actin (I-19, goat, polyclonal, Santa Cruz Biotechnology, Heidelberg, Germany) was used as loading control. The density of the immune reactive bands was analyzed using the Image Studio 5.2 software (LI-COR Biosciences, Bad Homburg, Germany).
# As master regulator of adipocyte differentiation in men and mice, PPARγ plays a crucial role in the cell’s commitment to the adipocyte lineage by controlling important functions such as intracellular biosynthesis, transport and accumulation of lipids. Murine 3T3-L1 fibroblasts are a well characterized in vitro tool to study PPARγ induced adipocyte differentiation. These cells can be differentiated from fibroblasts into adipocytes by an activation cocktail (0.5 mM IBMX, 1 μg/mL insulin, 0.25 μM dexamethasone) together with the potential PPARγ agonist. Upon differentiation, different parameters such as lipid accumulation and PPARγ target gene expression can be assessed to investigate the PPARγ activating potential of the compounds of interest. […] Rosiglitazone (2 μM) was used as positive control. This was followed by insulin (1 μg/mL) treatment for another 48 h. After this, cells were kept in growth medium for a week to complete the differentiation process and allow intracellular lipid accumulation. Subsequently, the cells were stained with Oil Red O solution to investigate the extent of cytoplasmic lipid droplet accumulation as a measure for cell differentiation.
# In addition to mRNA expression, the protein expression levels of the two PPARγ target genes FABP-4 and CD36 in differentiated 3T3-L1 cells after 14 days were investigated. For this, total protein lysates were separated by gel electrophoresis followed by Western Blotting (Figure 3E,F and Supplementary Figures S2A,B).
# [3] = biological target: T2, human PPARγ ligand binding domain (Homo sapiens, UniProt P37231); experiment: PPAR reporter gene assay (Gal4 hybrid, PPARγ); conditions: for Emax: read-out: PPARγ maximal activation, HEK-293T, relative to pioglitazone (1 μM)
# T2 sequence (P37231 238-503 limits assumed): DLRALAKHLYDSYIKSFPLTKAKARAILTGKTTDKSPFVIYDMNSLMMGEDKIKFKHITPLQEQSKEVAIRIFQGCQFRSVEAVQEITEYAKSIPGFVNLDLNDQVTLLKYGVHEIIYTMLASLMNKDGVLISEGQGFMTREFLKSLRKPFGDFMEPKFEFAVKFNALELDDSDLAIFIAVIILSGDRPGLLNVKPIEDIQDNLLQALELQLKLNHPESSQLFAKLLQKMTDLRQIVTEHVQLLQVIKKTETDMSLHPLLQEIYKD
# Description: HEK-293T cells were seeded in 96-well plates (2.5 × 10^4 cells/well) and were allowed to adhere overnight. Before transfection, medium was changed to Opti-MEM without supplements. Transient plasmid transfection was carried out using Lipofectamine LTX reagent (Invitrogen, Carlsbad, CA, United States) according to the manufacturer’s protocol with pFR-Luc (Stratagene, La Jolla, CA, United States), pRL-SV40 (Promega, Fitchburg, MA, United States) and pFA-CMV-PPAR-LBD ([Rau et al., 2006]). 5 h after transfection, medium was changed to Opti-MEM supplemented with penicillin (100 U/mL) and streptomycin (100 μg/mL), now additionally containing 0.1% DMSO and the respective test compound or 0.1% DMSO alone as untreated control. Each concentration was tested in triplicates and each experiment was repeated independently at least four times. Following overnight (12–16 h) incubation with the test compounds, cells were assayed for luciferase activity using the Dual-Glo^TM Luciferase Assay System (Promega, Fitchburg, MA, United States) according to the manufacturer’s protocol. Luminescence was measured with an Infinite M200 luminometer (Tecan Group Ltd., Männedorf, Switzerland). Normalization of transfection efficiency and cell growth was done by division of firefly luciferase data by renilla luciferase data and multiplying the value by 1000 resulting in relative light units (RLU). Fold activation was obtained by dividing the mean RLU of a test compound at a respective concentration by the mean RLU of untreated control. Relative activation was obtained by dividing the fold activation of a test compound at a respective concentration by the fold activation of the respective PPARα, γ or δ full agonist GW-7647, pioglitazone or L165,041 at 1 μM. EC50 and standard deviation were calculated with the mean relative activation values of at least four independent experiments by SigmaPlot 10.0 (Systat Software GmbH, Erkrath, Germany) using a four parameter logistic regression.
# For this, a hybrid receptor construct containing the respective human PPAR ligand binding domain and hinge region fused to the DNA binding domain of the yeast nuclear receptor Gal4 and a Gal4-responsive firefly luciferase construct were co-transfected into HEK-293T cells together with a plasmid constitutively expressing Renilla luciferase for normalization of transfection efficiency and cell growth. Activation of the PPAR isoforms was compared to 1 μM of the well characterized agonists GW7647, L165,041, and pioglitazone for PPARα, δ, and γ, respectively.
SMILES,PPARα EC50 [1],PPARγ isoforms γ1 and γ2 protein expression [2],Protein expression of PPARγ target genes FABP-4 and CD36 [2],Emax ([3]; HEK-293T),EC50 [3],"PPARγ maximal activation ([3]; HEK-293T, relative to pioglitazone (1 μM))"
"CC(C)(O)c1ccccc1CC[C@@H](SCC1(CC(=O)O)CC1)c1cccc(/C=C/c2ccc3ccc(Cl)cc3n2)c1 [Montelukast, montelukast]",i.a. @ 10 μM,not affected,no effect at all,21.9%,–,–
"COc1cc(C(=O)NS(=O)(=O)c2ccccc2C)ccc1Cc1cn(C)c2ccc(NC(=O)OC3CCCC3)cc12 [Zafirlukast, zafirlukast]",i.a. @ 10 μM,upregulated the protein levels,induced target gene expression as well but to a weaker extent,~150%,2490 ± 450 nM,148 ± 15%
